Measurements reported in ChEMBL document CHEMBL1143627, “Enantiomerically pure hexahydropyrazinoquinolines as potent and selective dopamine 3 subtype receptor ligands” (J Med Chem, 2005).

Legend:
D(2) dopamine receptor = D(2) dopamine receptor (Rattus norvegicus, UniProt P61169); experiment: Inhibition of [3H]spiperone binding to Dopamine receptor D2-like in rat caudate-putamen membrane; assay type: cell membranes
D(3) dopamine receptor = D(3) dopamine receptor (Rattus norvegicus, UniProt P19020); experiment: biochemical
D(3) dopamine receptor, sequence (P19020 whole entry): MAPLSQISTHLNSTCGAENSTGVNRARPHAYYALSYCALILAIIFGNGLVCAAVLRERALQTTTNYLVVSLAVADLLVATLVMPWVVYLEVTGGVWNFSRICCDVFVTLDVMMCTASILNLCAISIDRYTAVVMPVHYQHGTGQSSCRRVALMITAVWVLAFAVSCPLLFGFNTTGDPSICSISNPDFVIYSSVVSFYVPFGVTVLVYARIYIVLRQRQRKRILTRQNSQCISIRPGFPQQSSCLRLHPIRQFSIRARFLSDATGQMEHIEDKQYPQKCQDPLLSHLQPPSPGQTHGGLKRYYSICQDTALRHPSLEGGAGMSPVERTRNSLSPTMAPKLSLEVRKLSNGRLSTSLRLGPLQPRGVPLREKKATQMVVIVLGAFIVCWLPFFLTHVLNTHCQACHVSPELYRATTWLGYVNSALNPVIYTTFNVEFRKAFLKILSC
Description: Inhibition of [3H]-PD 128907 binding to Dopamine receptor D3 in rat ventral striatum

D(2) dopamine receptor, sequence (P61169 whole entry): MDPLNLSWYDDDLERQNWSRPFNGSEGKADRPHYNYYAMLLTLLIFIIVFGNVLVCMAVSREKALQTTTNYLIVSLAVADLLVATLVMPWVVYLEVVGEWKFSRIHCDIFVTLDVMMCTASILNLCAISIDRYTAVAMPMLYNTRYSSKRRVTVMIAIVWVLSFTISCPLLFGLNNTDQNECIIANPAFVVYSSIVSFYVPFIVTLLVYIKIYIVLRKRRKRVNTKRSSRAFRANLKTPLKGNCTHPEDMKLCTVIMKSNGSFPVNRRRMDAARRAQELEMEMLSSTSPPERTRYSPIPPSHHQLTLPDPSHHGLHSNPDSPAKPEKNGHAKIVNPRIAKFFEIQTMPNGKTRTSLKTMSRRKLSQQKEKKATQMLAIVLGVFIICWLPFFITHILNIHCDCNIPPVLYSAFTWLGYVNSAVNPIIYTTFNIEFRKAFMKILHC

Row | Structure (SMILES) | Ki (D(2) dopamine receptor) | Ki (D(3) dopamine receptor)
1 | O=C(NCCCCN1CCN2c3ccccc3CCC2C1)c1ccc2ccccc2c1 (stereo not drawn) | 1570 nM | 
2 | COc1ccc2c(c1)CC[C@@H]1CN(CCN3CCC(NC(=O)c4ccc5ccccc5c4)CC3)CCN21 | > 50000 nM | 4640 nM
3 | O=C(NCCCCN1CCN2c3ccccc3CC[C@@H]2C1)c1ccc2ccccc2c1 | 585 nM | 19 nM
4 | COc1ccc2c(c1)CC[C@H]1CN(CCC3CCC(NC(=O)c4ccc5ccccc5c4)CC3)CCN21 (stereo partly drawn) | > 10000 nM | 10 nM
5 | COc1ccc2c(c1)CC[C@@H]1CN(CCCCNC(=O)c3ccc4ccccc4c3)CCN21 | > 100000 nM | 67 nM
6 | COc1ccc2c(c1)N1CCN(CCCCNC(=O)c3ccc4ccccc4c3)C[C@@H]1CC2 | 990 nM | 96 nM
7 | COc1cccc2c1N1CCN(CCCCNC(=O)c3ccc4ccccc4c3)C[C@H]1CC2 | 312 nM | 
8 | COc1ccc2c(c1)CC[C@H]1CN(CCCCNC(=O)c3ccc4ccccc4c3)CCN21 | > 50000 nM | 126 nM
9 | COc1ccc2c(c1)CC[C@H]1CN(CCN3CCC(NC(=O)c4ccc5ccccc5c4)CC3)CCN21 | > 25000 nM | 7160 nM
10 | O=C(CCCN1CCN2c3ccccc3CCC2C1)c1ccc(F)cc1 (stereo not drawn) | 243 nM | 
11 | COc1ccc2c(c1)N1CCN(CCCCNC(=O)c3ccc4ccccc4c3)C[C@H]1CC2 | 1720 nM | 44 nM
12 | COc1cccc2c1CC[C@H]1CN(CCCCNC(=O)c3ccc4ccccc4c3)CCN21 | 659 nM | 9.3 nM
13 | COc1cccc2c1N1CCN(CCCCNC(=O)c3ccc4ccccc4c3)C[C@@H]1CC2 | 88 nM | 
14 | O=C(NCCCCN1CCN2c3ccccc3CC[C@H]2C1)c1ccc2ccccc2c1 | 180 nM | 16 nM
15 | COc1cccc2c1CC[C@@H]1CN(CCCCNC(=O)c3ccc4ccccc4c3)CCN21 | 644 nM | 8.3 nM
16 | COc1ccc2c(c1)CC[C@@H]1CN(CC[C@H]3CC[C@H](NC(=O)c4ccc5ccccc5c4)CC3)CCN21 | > 10000 nM | 5.7 nM
